Laboratory results taken from patent US10278940B2, “Use of 2,5-dihydroxybenzene compounds and derivatives for the treatment of skin cancer” (AmDerma Pharmaceuticals, LLC, priority 2006, dated 2019).

Assays:
[1] = biological target: T1, Fibroblast Growth Factor-1 (FGF-1) (Homo sapiens, UniProt P05230); assay: Crystal diffraction of FGF-1:compound complexes; details: electron density contoured at 1σ; acetoxyl groups conserved on binding
T1 construct: host or cells: added to Balb/c 3T3 fibroblast cultures
T1 sequence (P05230 whole entry, species assumed): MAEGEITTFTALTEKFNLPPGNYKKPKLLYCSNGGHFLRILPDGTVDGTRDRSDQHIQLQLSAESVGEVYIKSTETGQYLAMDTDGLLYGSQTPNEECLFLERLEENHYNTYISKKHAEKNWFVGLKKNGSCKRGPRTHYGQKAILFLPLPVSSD
Procedure: Based on the crystal diffraction of the FGF-1:2-acetoxy-5-hydroxybenzene sulfonic acid, FGF-1:5-acetoxy-2-hydroxybenzene sulfonic acid and FGF-1:2,5-diacetoxybenzene sulfonic acid complexes, the structures of the complexes were calculated and represented. FIGS. 13, 14 and 15, which show the surface of the dyed protein according to its electrostatic potential (light grey, negative charge; dark grey, positive charge; white, regions with no charge), show the manner in which 2-acetoxy-5-hydroxybenzene sulfonic acid, 5-acetoxy-2-hydroxybenzene sulfonic acid and 2,5-diacetoxybenzene sulfonic acid interact, respectively, with FGF-1.

[2] = biological target: T1, Fibroblast Growth Factor-1 (FGF-1); assay: Mitogenesis induced by FGF-1 in quiescent Balb/c 3T3 fibroblast cultures; type: cell-based
Procedure: The evaluated compounds were used in the form of potassium salt, except in the first case which used calcium salt. The experiments were carried out as described in Femandez-Tomero C et al. J Bioi Chern, 2003.

[3] = test system: rat glioma C6 cells; assay: Rat glioma C6 cell proliferation, crystal violet staining; type: cell-based; details: 48 h; for rat glioma cell proliferation (absorbance at 595 nm, % of control): 500 μM; for C6 cell proliferation: relative to control
Procedure: The cell line used was rat glioma C6 cells. The cells were cultured as previously described (Cuevas P et al. Neural Res, 2005). The cells were cultured as adherent cells in Dulbecco's modified Eagle's medium, supplemented with 7.5% (v/v) of fetal bovine serum, 10 μg/ml of streptomycin and 10 units/ml of penicillin. The tumor cells were seeded in 24-well plates at a density of 10,000 cells/well, and were incubated at 37° C. in a humidified chamber with 5% CO2. Once adhered, the cells were treated or not (controls) with 2,5-dihydroxybenzoate at 100, 200, 500 or 1000 µM and they were allowed to proliferate for 48 h. After this time the glioma cell proliferation was evaluated by means of staining the fixed cells with crystal violet. The number of cells is proportional to the amount of retained dye, which was spectrophotometrically determined by measuring the absorbance at 595 nm once the dye was extracted from the cells.
(§1) The cell line used was the C6 cell line and the experiment was carried out as described in Example 2. Once adhered, the cells were treated or not (controls) with increasing concentrations of 2,5-DHC (10, 25, 50 and 100 μM) and they were allowed to proliferate for 48 h. After this time the glioma cell proliferation was evaluated by means of staining the fixed cells with crystal violet. The number of cells is proportional to the amount of retained dye, which was determined spectrophotometrically by measuring absorbance at 595 nm once the dye was extracted from the cells.
as §1, with “examples 2 and 3.” for “Example 2.”, “(5A-2HBS) (500 μM) or (2A-5HBS) (500” for “increasing concentrations of 2,5-DHC (10, 25, 50 and 100”, “measuring the” for “measuring”

[4] = test system: subcutaneous gliomas (rat C6 glioma cells); assay: Apoptosis in sections of subcutaneous gliomas (hematoxylin and eosin); type: in vivo, rats; details: 100 mg/kg/day i.p. for 10 days; vs carrier
Excerpt: Tumor cells elude the programmed cell death process or apoptosis that normal cells experience. Apoptosis induction in tumor cells is one way to confront the development of a tumor. To evaluate the effect of potassium 2,5-[…] sulfonate (DABS) on tumor cell apoptosis, 6).lm thick sections of the subcutaneous gliomas described in example 4 were made. The sections were stained with hematoxylin and eosin and observed at a magnification of 313 times using immersion oil. In these conditions, cell apoptosis is shown by the existence of apoptotic bodies appearing as strongly chromogenic granules in the cell nucleus which is frequently fragmented.

[5] = test system: human prostate cancer PC-3 cells; assay: Human tumor cell proliferation, XTT viability method; type: cell-based; details: 1-200 μM; 96 h
Procedure: (§2) The cell lines used were the human prostate cancer PC-3 cells and human lung cancer A549 cells. 2000 cells were seeded per well in 96-well plates and they were allowed to adhere overnight. Then the cells were treated or not (controls) with potassium 2,5-diacetoxybenzene sulfonate (DABS) (1-200 μM) and they were allowed to proliferate for 96 h. After this time, the PC-3 and A549 cell proliferation was evaluated by determining the final number of cells by means of the viability method of yellow tetrazolium salt (XTT). The data were expressed as a percentage of the control (without treatment).

[6] = test system: human lung cancer A549 cells; assay: as above; type: cell-based; details: 1-200 μM; 96 h
Procedure: as §2

[7] = test system: subcutaneous gliomas (rat C6 glioma cells); assay: Progression of established subcutaneous C6 gliomas in rats; type: in vivo
Procedure: Rat C6 glioma cells were cultured as previously described (Cuevas P et al. Neural Res, 2005). The C6 cells cultured to confluence in 75 cm^2 flasks were removed and implanted under the abdominal skin in anesthetized rats. The existence of a tumor in the implantation area was observed five days after the implantation of the tumor cells. Only the rats in which the existence of a tumor was observed were randomly assigned to be treated with daily intraperitoneal injections of 2,5-dihydroxybenzene sulfonate (DHBS; 100 mg/kg/day), 2,5-diacetoxybenzene sulfonate (DABS; 100 mg/kg/day) or the carrier (0.9% NaCl). After 10 days of treatment, the subcutaneous gliomas were removed and their volume was calculated according to the formula V=4/3π.(L/2).(A/2)^2 (in mm^3) where L is the larger diameter and A is the smaller diameter, both expressed in mm.

[8] = test system: human prostate cancer PC-3 cells; assay: Subcutaneous PC-3 prostate cancer cell implantation model in athymic mice; type: in vivo, athymic mice (Nu/Nu); details: 100 mg/kg daily i.p. for 15 days, vs carrier
Procedure: 5×10^6 human prostate cancer PC-3 cells were subcutaneously injected in male athymic mice (Nu/Nu) of 6-8 weeks of age and weighing 20-26 g. Ten days after the implantation of the tumor cells, the mice were randomly split into two groups: one of them received a daily injection of potassium 2,5-diacetoxybenzene sulfonate (DABS) by intraperitoneal route at a dose of 100 mg/kg dissolved in saline (0.9% NaCl) whereas the other group received a daily injection of carrier (saline). The treatments were administered for 15 days. The volumes of the tumors induced by the implantation of PC-3 cells were measured through the skin on alternating days using a Vernier caliper. The volume was calculated using the formula […], where D is the larger diameter in mm, d is the smaller diameter in mm and V is the volume in mm^3. At the end of treatment, the mice were sacrificed and the tumors were weighed.

[9] = test system: bFGF-induced fibrosis; assay: bFGF-induced fibrosis around subcutaneously implanted gelatin sponges; type: in vivo, Sprague-Dawley rats; details: 100 μM in sponge with bFGF 10 μg/ml and heparin; subcutaneous; 7 days
Procedure: Sterile gelatin sponges ([…]; Curaspon Dental, Clinimed Holding, Zwanenburg, The Netherlands) were subcutaneously implanted in the dorsal region of the neck in Sprague-Dawley rats after the induction of intraperitoneal anesthesia. The animals were split into two groups: group A, the sponges were moistened with 200 III of saline solution which contained 25 μg/ml of heparin and 10 μg/ml of basic FGF (bFGF); group B, the sponges were moistened in the same solution as in group A, but which solution further contained 2,5-dihydroxybenzoate (100 μM). After 7 days, the sponges and the surrounding subcutaneous fat were removed and histologically analyzed.

Compound: CC(=O)Oc1ccc(O)c(S(=O)(=O)[O-])c1.[K+] [5A-2HBS, potassium 5-acetoxy-2-hydroxybenzene sulfonate]
- binding site on FGF-1 in the co-crystal [1]: occupy a site that is very close to the one that has been described occupied by 2,5-dihydroxybenzene sulfonic acid
- mitogenesis induced by FGF-1 [2]: inhibition of mitogenesis induced by FGF-1
- rat glioma cell proliferation (absorbance at 595 nm, % of control) [3]: caused the inhibition of rat glioma cell proliferation

Compound: O=C(O)C=Cc1cc(O)ccc1O [2,5-DHC, 3-(2,5-dihydroxyphenyl)-2-propenoic acid]
- C6 cell proliferation ([3]; 50 µM): reduced the C6 cell proliferation to less than half
- C6 cell proliferation ([3]; 100 μM): reduced to one tenth

Compound: CC(=O)Oc1ccc(OC(C)=O)c(S(=O)(=O)[O-])c1.[K+] [DABS, potassium 2,5-diacetoxybenzene sulfonate]
- tumor cells in apoptosis in glioma sections [4]: a large number of tumor cells in apoptosis can be observed
- PC-3 cell proliferation (number of viable cells, % of control) [5]: significant inhibition
- A549 cell proliferation (number of viable cells, % of control) [6]: significant inhibition
- binding site on FGF-1 in the co-crystal [1]: occupy a site that is very close to the one that has been described occupied by 2,5-dihydroxybenzene sulfonic acid
- probability of being tumor-free (χ2 test) ([7]; DABS group vs DHBS group, 100 mg/kg/day each): greater probability of being tumor-free
- rats tumor-free when treatment ended ([7]; i.p. 100 mg/kg/day for 10 days, all rats had established tumors before treatment): 4 rats
- mitogenesis induced by FGF-1 [2]: inhibition of mitogenesis induced by FGF-1
- tumor growth (tumor volume measured through the skin) ([8]; started 10 days after implantation): significantly reduced the human prostate cell tumor growth
- weight of the extracted tumor when treatment ended [8]: significant reduction of the weight of the extracted tumor

Compound: O=C([O-])c1cc(O)ccc1O.[K+] [2,5-dihydroxybenzoate, potassium 2,5-dihydroxybenzoate]
- rat glioma C6 cell proliferation (absorbance at 595 nm) ([3]; 100, 200, 500 or 1000 μM): inhibited rat glioma C6 cell proliferation in a concentration-dependent manner
- statistical significance of the inhibition of C6 cell proliferation ([3]; at 500 and 1000 μM, vs control): statistically significant
- bFGF-induced fibrosis (fibroblasts in septa of connective tissue of adipose tissue) [9]: reduces bFGF-induced fibrosis

Compound: CC(=O)Oc1ccc(O)cc1S(=O)(=O)[O-].[K+] [2A-5HBS, potassium 2-acetoxy-5-hydroxybenzene sulfonate]
- binding site on FGF-1 in the co-crystal [1]: occupy a site that is very close to the one that has been described occupied by 2,5-dihydroxybenzene sulfonic acid
- rat glioma cell proliferation (absorbance at 595 nm, % of control) [3]: caused the inhibition of rat glioma cell proliferation

Compound: O=S(=O)([O-])c1cc(O)ccc1O.[K+] [DHBS, potassium 2,5-dihydroxybenzene sulfonate, reference compound]
- average size (volume) of the subcutaneous gliomas ([7]; i.p. 100 mg/kg/day for 10 days, started on day 5 after implantation, vs carrier): less than that of the rats treated with carrier
- mitogenesis induced by FGF-1 [2]: inhibition of the mitogenesis induced by fibroblast growth factor-1

Compound: calcium 2-acetoxy-5-hydroxybenzene sulfonate
- mitogenesis induced by FGF-1 [2]: inhibition of mitogenesis induced by FGF-1
